Results on one molecule are retold here after paper PMC9266914, “Broad Spectrum Functional Activity of Structurally Related Monoanionic Au(III) Bis(Dithiolene) Complexes” (International Journal of Molecular Sciences, 2022).

The data set addresses T1, thioredoxin reductase (TrxR) (Rattus norvegicus, UniProt O89049).
T1 construct: purchased Sigma-Aldrich
T1 sequence (O89049 1-499): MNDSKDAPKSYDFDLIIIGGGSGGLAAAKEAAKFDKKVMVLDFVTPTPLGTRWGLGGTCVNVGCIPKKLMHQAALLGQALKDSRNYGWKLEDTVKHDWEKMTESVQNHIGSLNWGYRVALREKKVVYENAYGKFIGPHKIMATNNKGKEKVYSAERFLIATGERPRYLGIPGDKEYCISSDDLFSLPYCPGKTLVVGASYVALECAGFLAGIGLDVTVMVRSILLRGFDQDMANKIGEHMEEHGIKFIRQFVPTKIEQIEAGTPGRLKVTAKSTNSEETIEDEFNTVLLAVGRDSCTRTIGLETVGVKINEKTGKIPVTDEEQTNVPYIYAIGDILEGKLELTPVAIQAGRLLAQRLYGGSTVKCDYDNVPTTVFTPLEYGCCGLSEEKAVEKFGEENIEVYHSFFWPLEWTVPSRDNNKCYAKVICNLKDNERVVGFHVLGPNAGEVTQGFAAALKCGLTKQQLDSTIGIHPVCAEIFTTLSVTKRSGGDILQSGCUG
Nature of the data set: Thioredoxin reductase inhibition, colorimetric DTNB assay. To be noted: 0.1 nM–2 µM. Type of data set: biochemical. How it is done: The effect of the selected gold complexes on the activity of TrxR was evaluated by a colorimetric DTNB assay as previously described. […] The substituent on the nitrogen atom of the thiazoline ring ([P][AuSEt(=S)] vs. [P][AuSBu(=S)]) and the nature of the exocyclic atom ([P][AuSEt(=S)] vs. [P][AuSEt(=Se)]) seemed to influence the inhibitory effect on the enzyme. The exocyclic selenium atoms of [P][AuSEt(=Se)] seemed to disfavor the intermolecular interaction with the enzyme in relation with the peripheral thione group of [P][AuSEt(=S)].
The […] (TrxR) inhibition assays were performed using a commercial kit from Sigma-Aldrich, introducing minor modifications for a 96-well plate format. The assay is based on the reduction of DTNB (5,5′ dithiobis(2-nitrobenzoic acid)) into TNB (5-thio-2-nitrobenzoic acid) with the concomitant oxidation of NADPH, in a reaction catalyzed by TrxR [92]. The complexes were dissolved in DMSO to prepare serial concentrations in the range of 0.1 nM–2 µM. The reaction mixture (200 µL total volume) contained 11 μL assay buffer (phosphate buffer, pH 7.0 and 50 mM EDTA), 180 µL working buffer (phosphate buffer and 0.25 mM NADPH), 1 μL complexes’ solutions, 2 μL enzyme solution and 6 µL DTNB (0.1 M in DMSO). […] The formation of TNB was monitored at 412 nm with a plate spectrophotometer (Power Wave Xs, Bio-Tek).

By IC50 is commonly meant the concentration needed to halve the response being measured. Read a low IC50 as inhibition by little substance. With `CC(=O)OC[C@H]1O[C@@H]([S-])[C@H](OC(C)=O)[C@@H](OC(C)=O)[C@@H]1OC(C)=O.CCP(CC)CC.[Au+]` [Auranofin, reference compound], the IC50 was 26 ± 10 nM.
